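Step 1: Grow cells in 96-well plates. Step 2: Expose to compound for 48 hours at 5 concentrations. Step 3: Interpolate endpoints linearly; if unreached, use highest concentration. Here, GI50 denotes the concentration required for 50% inhibition of growth. TGI is the concentration that stops growth completely.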 A value given as a limit tells only on which side of the number the result lay.

TGI and GI50 data for 18 molecules are collected here from PubChem BioAssay (NCI).

Test in all cases: NCI-60 cell line screen, 48 h
The test system of experiment [1] is BT-549 breast.
Experiment [2] relates to HCC-2998 colon.
The subject of experiment [3] is HOP-62 NSCLC.
Experiment [4] deals with IGROV1 ovarian.
Experiment [5] relates to NCI-H226 lung.
The subject of experiment [6] is OVCAR-4 ovarian.
Experiment [7] deals with SF-268 CNS.
Experiment [8] deals with SK-OV-3 ovarian.
The test system of experiment [9] is SNB-19 CNS.
Experiment [10] deals with SNB-75 CNS.

With `COC(=O)CCc1cc(OC)c2c(c1)[C@H](C(=O)OC)[C@@H](c1ccc(O)c(OC)c1)O2`, the TGI in [1] was greater than 100 µM; in experiment [2], 50.5 µM; in experiment [3] it was greater than 100 µM; in experiment [4], greater than 100 µM; in experiment [5], greater than 100 µM; in experiment [6], greater than 100 µM. For the same molecule, the TGI in experiment [7], in [8], in experiment [9] and in experiment [10] was greater than 100 µM each time.
On to `CCCCn1cnc2c(c(CC#N)nn2-c2ccccc2)c1=N`, for which the TGI in [1], in experiment [2], in [3], in [4], in experiment [5] and in experiment [6] was greater than 100 µM throughout. Also, the TGI in experiment [7], in experiment [8], in experiment [9] and in [10] was greater than 100 µM in each case.
Take `Cc1cc2c([N+](=O)[O-])cc3c(c2o1)C(=O)C=CC3=O`: the TGI was 30.4 µM in experiment [1]; greater than 57.8 µM in experiment [2]; 34.1 µM in experiment [3]; 26.6 µM in [4]; greater than 75.1 µM in experiment [5]; 30.2 µM in [6]. The TGI in experiment [7] was 32.1 µM; in experiment [8] it was greater than 80.1 µM; in [9] it was 30.9 µM; in experiment [10], greater than 61.5 µM.
With `COc1ccc(S(=O)(=O)N2C(=O)CCC2C(=O)NN)cc1` (configuration not stated), the TGI in [1], in experiment [2], in experiment [3], in experiment [4], in [5] and in experiment [6] was greater than 100 µM throughout. In addition, the TGI in experiment [8], in [9] and in [10] was greater than 100 µM throughout.
As for `Clc1ccc(CSCCc2ccncc2)cc1Cl`, the TGI was found to be 42.6 µM in experiment [1]; 34.2 µM in [2]; 50.2 µM in experiment [3]; 52.2 µM in experiment [4]; 49.2 µM in experiment [5]; 98.7 µM in [6]. For the same molecule, the TGI worked out at 49.5 µM in [7], 59.4 µM in experiment [8], 35.6 µM in [9] and 77.6 µM in [10].
On to `O=C1CC(C(O)(C(F)(F)F)C(F)(F)Cl)CCC1C(O)(C(F)(F)F)C(F)(F)Cl` (configuration not stated), for which the TGI in experiment [1], in experiment [2], in experiment [3], in [4], in experiment [5] and in [6] was greater than 10 µM throughout. Also, the TGI in [7], in experiment [8], in [9] and in [10] was greater than 10 µM each time.
Consider `CCOC(=O)c1nc2ccc(C(F)(F)F)cc2nc1Oc1ccc(C#N)cc1`, for which the TGI in experiment [1] was 36.8 µM; in experiment [2], greater than 100 µM; in experiment [3], 28.9 µM; in [4], 28.5 µM; in experiment [5], 34.8 µM; in experiment [6], 83.8 µM. In addition, the TGI in [7] is 33.6 µM; in [8] it was 46 µM; in experiment [9], 35.3 µM; in experiment [10], 28 µM.
With `Cc1cc(-c2nc3ccccc3s2)ccc1NC(=O)[C@@H](N)CCCCN`, the TGI was found to be 24.1 µM in experiment [1]; 24.5 µM in experiment [2]; 25.9 µM in [3]; 17.2 µM in experiment [4]; 17.8 µM in experiment [5]; 21.3 µM in experiment [6]. For the same molecule, the TGI in experiment [7] was 14.5 µM; in experiment [8] it was 27.2 µM; in [9] it was 29.4 µM; in [10], 13 µM.
With `O=C(Cc1ccccc1)NN1C(=O)/C(=C\c2ccccc2)SC1=Nc1ccccc1`, the TGI in experiment [1], in experiment [2], in experiment [3], in [4], in experiment [5] and in [6] was greater than 100 µM in each case. Also, the TGI in experiment [7], in experiment [8], in experiment [9] and in experiment [10] was greater than 100 µM throughout.
Consider `COC(C)(C)[C@@H](O)[C@H]1C[C@H](C)[C@@]2(CC[C@]3(C)[C@@H]2CC[C@@H]2[C@@]4(C)CC[C@@H](OC(C)=O)C(C)(C)[C@@H]4C[C@@H](OC4OC(COC(C)=O)C(O)C(O)C4O)[C@]23C)O1` (some centres not stated), for which the TGI in experiment [1] is 15.2 µM; in [2], 2.92 µM; in experiment [3], 25 µM; in experiment [4], 16.6 µM; in experiment [5], 17.5 µM; in [6], 14.4 µM. In addition, the TGI worked out at 18.6 µM in [7], 15.1 µM in experiment [8], 21.3 µM in [9] and 16.5 µM in experiment [10].
For `C/C1=C\CC[C@@]2(C)O[C@@H]2C[C@@H](C2(C)CO2)CC/C(C)=C/CC1` (some centres not stated), the TGI in experiment [1] is 42.8 µM; in experiment [2], 39.2 µM; in experiment [3], 97.3 µM; in experiment [4], greater than 100 µM; in experiment [5], 30.3 µM; in experiment [6] it was greater than 100 µM. In addition, the TGI was 33.9 µM in experiment [7], greater than 100 µM in [8], 41.3 µM in [9] and 93.7 µM in [10].
For the molecule `C[C@]12CC[C@@H]3c4ccc(O)cc4CC[C@H]3[C@@H]1C/C(=C\c1ccncc1)[C@@H]2O`, the TGI in [1] is 14.2 µM; in experiment [2] it was 53 µM; in experiment [3], 44.5 µM; in experiment [4], 28.7 µM; in experiment [5], 42.1 µM; in experiment [6], greater than 100 µM. Moreover, the TGI in [7] was 55.5 µM; in experiment [8] it was greater than 100 µM; in experiment [9], greater than 100 µM; in experiment [10], 23.6 µM.
Turning to `Nc1ccc(-c2nc3ccccc3s2)cc1C(F)(F)F`, the TGI in experiment [1] turned out to be 26.4 µM; in experiment [2], 22.4 µM; in [3], 30 µM; in experiment [4], 21.1 µM; in experiment [5] it was 34.4 µM; in [6] it was 32.9 µM. In addition, the TGI in experiment [7] is 30.4 µM; in experiment [8] it was 30.4 µM; in experiment [9], 33.2 µM; in experiment [10], 27.9 µM. The GI50 in experiment [2] was 10.6 µM; in experiment [4], 2.6 µM; in experiment [5], 15.3 µM; in experiment [6] it was 15.9 µM.
For `O=C(NCCCN(CCCCN(CCCNC(=O)C(F)(F)F)Cc1ccc2ccccc2c1)Cc1ccc2ccccc2c1)C(F)(F)F`, the TGI was greater than 100 µM in experiment [1]; 2.93 µM in experiment [2]; greater than 100 µM in experiment [3]; greater than 100 µM in experiment [4]; greater than 100 µM in [5]; greater than 100 µM in experiment [6]. In addition, the TGI in experiment [7], in [8] and in experiment [10] was greater than 100 µM in each case.
Turning to `Nc1nc(Cl)cc(NCC2(CO)CCC(CCc3ccccc3)C2)n1` (configuration not stated), the TGI amounted to 30.3 µM in experiment [1]; 33.8 µM in experiment [2]; 23.1 µM in experiment [3]; 37 µM in experiment [4]; 36.1 µM in experiment [5]; 31.2 µM in experiment [6]. Besides, the TGI in [7] stood at 35.6 µM; in [8], 35.1 µM; in experiment [9], 31.3 µM; in experiment [10], 39.4 µM.
With `COc1ccc(/C=C2\C[C@H]3[C@@H]4CCC5=C/C(=N/O)CC[C@]5(C)[C@H]4CC[C@]3(C)\C2=N\O)cc1OC`, the TGI in [1], in experiment [2], in experiment [3], in experiment [4], in experiment [5] and in experiment [6] was greater than 100 µM each time. For the same molecule, the TGI in experiment [7], in [8], in [9] and in [10] was greater than 100 µM throughout.
In the case of `c1csc(-c2ccc(-c3cccs3)c3nsnc23)c1`, the TGI is greater than 100 µM in experiment [1]; greater than 100 µM in experiment [2]; greater than 95.7 µM in experiment [3]; greater than 88.4 µM in experiment [4]; greater than 50.2 µM in experiment [5]; greater than 100 µM in experiment [6]. In addition, the TGI in experiment [7] is greater than 59.2 µM; in experiment [8] it was greater than 96.4 µM; in [9], greater than 100 µM; in experiment [10] it was greater than 100 µM.
For `COC(=O)CN1c2nc(C#N)c(C#N)nc2N(CC(=O)OC)c2nc(C#N)c(C#N)nc21`, the TGI was 11.3 µM in experiment [1]; greater than 49.7 µM in experiment [2]; 34.3 µM in experiment [3]; 23.4 µM in experiment [4]; greater than 100 µM in [5]; 17.3 µM in experiment [6]. Further, the TGI is 11.4 µM in experiment [7], 35.2 µM in experiment [8], greater than 65.9 µM in experiment [9] and 30.4 µM in experiment [10].
